Each structure is given as a SMILES string.

The values that follow come from patent US10421761B2, “Compounds for kinase modulation, and indications therefor” (Plexxikon Inc., priority 2013, dated 2019).

In experiment [1] the test system is A375 (BRAF V600E) cell line. Kind of experiment: A375 P-ERK inhibition assay (AlphaScreen). Type of experiment: cell-based, human. Particulars: Homo sapiens, A-375; A375_P-ERK. The essentials:
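Phospho-ERK1/2 (Thr202/Tyr204) detected in lysates by AlphaScreen proximity signal, pairing a total-ERK antibody with a phospho-specific antibody. Before lysis, A375 cells received compound as an 8-point titration for one hour at 37° C.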
For orientation: Bead proximity is the source of the signal in Alpha formats.

The next experiment has as its target T1, BRAF V600E (Homo sapiens, UniProt P15056, V600E).
T1 construct: purchased Upstate Biotechnology
Kind of experiment: BRAF V600E biochemical kinase activity assay (AlphaScreen, biotin-MEK1 substrate). The following applies: BRAF V600E biochemical inhibitory activity.

For experiment [2], the system named is IPC-298 (NRAS Q61L) cell line. Nature of the experiment: IPC-298 P-ERK cell activation assay (AlphaScreen). Type of experiment: cell-based, human. The following applies: Homo sapiens; P-ERK cell activation, IPC-298; numeric bounds; read-out: Cell activity (EC50 μM) IPC-298_P-ERK. The essentials: (§1)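 Phospho-ERK1/2 (Thr202/Tyr204) in lysates quantified via AlphaScreen bead proximity, after one-hour, 37° C. exposure of cells to eight compound concentrations. Lines: IPC-298 human melanoma with activated NRAS; B9 mouse squamous carcinoma with activated HRAS.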

The test system of a further experiment is B9 (HRAS Q61L) cell line. Kind of experiment: B9 P-ERK cell activation assay (AlphaScreen). Type of experiment: cell-based, mouse. Particulars: Mus musculus; P-ERK cell activation, B9; numeric bounds; read-out: Cell activity (EC50 μM) B9_pERK. The essentials: as §1

T1 sequence (P15056 whole entry V600E): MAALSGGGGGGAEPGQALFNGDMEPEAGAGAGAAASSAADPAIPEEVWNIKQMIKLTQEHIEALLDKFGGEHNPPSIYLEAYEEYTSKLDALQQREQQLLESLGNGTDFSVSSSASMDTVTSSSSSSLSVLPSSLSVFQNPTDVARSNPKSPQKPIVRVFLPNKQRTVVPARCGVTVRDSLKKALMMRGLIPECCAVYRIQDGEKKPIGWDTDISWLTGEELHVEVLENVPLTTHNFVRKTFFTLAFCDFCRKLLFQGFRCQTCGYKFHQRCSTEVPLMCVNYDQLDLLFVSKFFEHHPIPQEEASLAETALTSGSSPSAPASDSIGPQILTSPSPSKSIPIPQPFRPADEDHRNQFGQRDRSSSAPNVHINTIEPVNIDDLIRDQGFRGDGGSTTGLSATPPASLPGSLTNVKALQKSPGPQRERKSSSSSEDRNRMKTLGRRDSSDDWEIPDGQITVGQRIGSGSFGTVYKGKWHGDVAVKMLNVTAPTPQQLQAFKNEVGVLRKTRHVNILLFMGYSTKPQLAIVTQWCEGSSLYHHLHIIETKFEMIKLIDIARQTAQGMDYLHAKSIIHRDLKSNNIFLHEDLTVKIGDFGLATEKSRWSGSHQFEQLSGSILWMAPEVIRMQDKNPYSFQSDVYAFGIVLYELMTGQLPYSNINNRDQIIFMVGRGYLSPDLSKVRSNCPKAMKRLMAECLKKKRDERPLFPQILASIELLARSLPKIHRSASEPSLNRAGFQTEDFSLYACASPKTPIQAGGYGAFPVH

For `CCN(C)S(=O)(=O)Nc1cccc(-c2nc(C(C)(C)C)sc2-c2ccnc(N)n2)c1F` [P-2089, 5-(2-aminopyrimidin-4-yl)-2-tert-butyl-4-[3-[[ethyl(methyl)sulfamoyl]amino]-2-fluoro-phenyl]thiazole], the IC50 (in experiment [1]; at BRAF V600E) was 0.0001 to 1 µM throughout. The EC50 (in experiment [2]; with B9 (HRAS Q61L) cell line) was above 1 µM each time.

Take `CCN(C)S(=O)(=O)Nc1cccc(C(=O)c2c[nH]c3ncnc(NC(C)C)c23)c1F` [P-2067, 5-[3-[[ethyl(methyl)sulfamoyl]amino]-2-fluoro-benzoyl]-4-(isopropylamino)-7H-pyrrolo[2,3-d]pyrimidine]: the IC50 (in experiment [1]; at BRAF V600E) was 0.0001 to 1 µM throughout. Moreover, the half-maximal effective concentration (EC50) (in experiment [2]; in the experiment on B9 (HRAS Q61L) cell line) was above 10 µM throughout.

As to `COc1ccnc2[nH]cc(C(=O)c3c(F)ccc(NS(=O)(=O)C4CCCCC4)c3F)c12` [Compound P-2005, N-[2,4-difluoro-3-(4-methoxy-1H-pyrrolo[2,3-b]pyridine-3-carbonyl)phenyl]cyclohexanesulfonamide], the IC50 (in general, the point on the concentration scale where inhibition reaches its midpoint) in experiment [1] fell in the range of 1 to 10 µM; at BRAF V600E it was 0.0001 to 1 µM. Besides, the EC50 (in experiment [2]; in the experiment with B9 (HRAS Q61L) cell line) was above 10 µM throughout.

With `CCN(C)S(=O)(=O)Nc1cccc(C(=O)c2c[nH]c3ncnc(NC)c23)c1F` [P-2062, 5-[3-[[ethyl(methyl)sulfamoyl]amino]-2-fluoro-benzoyl]-4-(methylamino)-7H-pyrrolo[2,3-d]pyrimidine], the IC50 (in experiment [1]; on BRAF V600E) was 0.0001 to 1 µM throughout. For the same molecule, the 50% effective concentration (EC50) (in experiment [2]; in the experiment on B9 (HRAS Q61L) cell line) was above 10 µM throughout.

As to `CC(C)Nc1ncnc2[nH]cc(C(=O)c3c(F)ccc(NS(=O)(=O)N(C)C)c3F)c12` [P-2045, 5-[3-(dimethylsulfamoylamino)-2,6-difluoro-benzoyl]-4-(isopropylamino)-7H-pyrrolo[2,3-d]pyrimidine], the IC50 (in experiment [1]; against BRAF V600E) was 0.0001 to 1 µM throughout. Moreover, the EC50 (in experiment [2]; in the experiment with B9 (HRAS Q61L) cell line) was above 10 µM in each case.

For `CCCNc1ncnc2[nH]cc(C(=O)c3cccc(NS(=O)(=O)N(C)CC)c3F)c12` [P-2066, 5-[3-[[ethyl(methyl)sulfamoyl]amino]-2-fluoro-benzoyl]-4-(propylamino)-7H-pyrrolo[2,3-d]pyrimidine], the IC50 (in experiment [1]; at BRAF V600E) was 0.0001 to 1 µM throughout. Moreover, the EC50 (in experiment [2]; in the experiment with B9 (HRAS Q61L) cell line) was above 10 µM each time.

For `CCN(C)S(=O)(=O)Nc1cccc(C(=O)c2c[nH]c3ncnc(NCCOC)c23)c1F` [P-2073, 5-[3-[[ethyl(methyl)sulfamoyl]amino]-2-fluoro-benzoyl]-4-(2-methoxyethylamino)-7H-pyrrolo[2,3-d]pyrimidine], the IC50 (in experiment [1]; on BRAF V600E) was 0.0001 to 1 µM throughout. The EC50 (in experiment [2]; in the experiment with B9 (HRAS Q61L) cell line) was above 10 µM throughout.

For `CCN(C)S(=O)(=O)Nc1cccc(-c2nc(C(C)(C)C)sc2-c2ccnc(Cl)n2)c1F` [P-2085, 2-tert-butyl-5-(2-chloropyrimidin-4-yl)-4-[3-[[ethyl(methyl)sulfamoyl]amino]-2-fluoro-phenyl]thiazole], the IC50 in experiment [1] fell in the range of 0.0001 to 1 µM; against BRAF V600E, 1 to 10 µM. Besides, the EC50 (in experiment [2]; in the experiment on B9 (HRAS Q61L) cell line) was above 10 µM throughout.

In the case of `O=C(c1cccc(NS(=O)(=O)N2CCCC2)c1F)c1c[nH]c2ncnc(NCC(O)CO)c12` (stereo not shown) [P-2096, N-[3-[4-(2,3-dihydroxypropylamino)-7H-pyrrolo[2,3-d]pyrimidine-5-carbonyl]-2-fluoro-phenyl]pyrrolidine-1-sulfonamide], the 50% inhibitory concentration (IC50) was above 10 µM in experiment [1] and 0.0001 to 1 µM against BRAF V600E. In addition, the EC50 (in experiment [2]; in the experiment on B9 (HRAS Q61L) cell line) was above 10 µM in each case.

With `COC(=O)C(CC(C)C)Nc1ncnc2[nH]cc(C(=O)c3cccc(NS(=O)(=O)N4CCCC4)c3F)c12` (stereo not shown) [P-2107, methyl 2-[[5-[2-fluoro-3-(pyrrolidin-1-ylsulfonylamino)benzoyl]-7H-pyrrolo[2,3-d]pyrimidin-4-yl]amino]-4-methyl-pentanoate], the IC50 was in the range of 1 to 10 µM in experiment [1] and 0.0001 to 1 µM on BRAF V600E. The EC50 (in experiment [2]; in the experiment on B9 (HRAS Q61L) cell line) was above 10 µM each time.

For `CCN(C)S(=O)(=O)Nc1cccc(C(=O)c2c[nH]c3ncnc(NCC4CC4)c23)c1F` [P-2064, 4-(cyclopropylmethylamino)-5-[3-[[ethyl(methyl)sulfamoyl]amino]-2-fluoro-benzoyl]-7H-pyrrolo[2,3-d]pyrimidine], the IC50 (in experiment [1]; on BRAF V600E) was 0.0001 to 1 µM in each case. The EC50 (in experiment [2]; in the experiment with B9 (HRAS Q61L) cell line) was above 10 µM each time.

As for `COC(=O)N[C@@H](C)CNc1nccc(-c2nn(C(C)C)cc2-c2cc(Cl)cc(NS(=O)(=O)N3CCC3)c2F)n1` [P-2163, methyl N-[(1S)-2-[[4-[4-[3-(azetidin-1-ylsulfonylamino)-5-chloro-2-fluoro-phenyl]-1-isopropyl-pyrazol-3-yl]pyrimidin-2-yl]amino]-1-methyl-ethyl]carbamate], the IC50 (in experiment [1]; at BRAF V600E) was 1 to 10 µM in each case. The EC50 (in experiment [2]; with B9 (HRAS Q61L) cell line) was above 10 µM throughout.

Consider `Cc1nc2c(-c3sc(C(C)(C)C)nc3-c3cccc(NS(=O)(=O)N4CCCC4)c3F)ncnc2[nH]1` [P-2124, N-[3-[2-tert-butyl-5-(8-methyl-9H-purin-6-yl)thiazol-4-yl]-2-fluoro-phenyl]pyrrolidine-1-sulfonamide], for which the IC50 (in experiment [1]; on BRAF V600E) was 0.0001 to 1 µM each time. In addition, the EC50 (commonly the concentration giving half of the maximal effect) in experiment [2] is above 1 µM; in the experiment on B9 (HRAS Q61L) cell line, above 10 µM.

With `O=C(c1c(F)ccc(NS(=O)(=O)N2CCOCC2)c1F)c1c[nH]c2nccc(Cl)c12` [P-2024, N-[3-(4-chloro-1H-pyrrolo[2,3-b]pyridine-3-carbonyl)-2,4-difluoro-phenyl]morpholine-4-sulfonamide], the IC50 (in experiment [1]; against BRAF V600E) was 0.0001 to 1 µM in each case. Also, the EC50 (in experiment [2]; in the experiment with B9 (HRAS Q61L) cell line) was above 10 µM in each case.

As for `CN(C)S(=O)(=O)Nc1ccc(F)c(C(=O)c2c[nH]c3ncncc23)c1F` [P-2026, 5-[3-(dimethylsulfamoylamino)-2,6-difluoro-benzoyl]-7H-pyrrolo[2,3-d]pyrimidine], the results for the concentration for half-maximal inhibition (IC50) (in experiment [1]; on BRAF V600E) were above 10 µM and 1 to 10 µM, respectively. Besides, the EC50 (in experiment [2]; in the experiment with B9 (HRAS Q61L) cell line) was above 10 µM throughout.

Turning to `CC(C)(C)c1nc(-c2cccc(NS(=O)(=O)N3CCCC3)c2F)c(-c2ncnc3[nH]ccc23)s1` [P-2122, N-[3-[2-tert-butyl-5-(7H-pyrrolo[2,3-d]pyrimidin-4-yl)thiazol-4-yl]-2-fluoro-phenyl]pyrrolidine-1-sulfonamide], the IC50 (in experiment [1]; against BRAF V600E) was 0.0001 to 1 µM in each case. The EC50 (in experiment [2]; in the experiment on B9 (HRAS Q61L) cell line) was above 10 µM throughout.

For the molecule `Cc1cc2c(-c3sc(C(C)(C)C)nc3-c3cccc(NS(=O)(=O)N4CCCC4)c3F)ncnc2[nH]1` [P-2123, N-[3-[2-tert-butyl-5-(6-methyl-7H-pyrrolo[2,3-d]pyrimidin-4-yl)thiazol-4-yl]-2-fluoro-phenyl]pyrrolidine-1-sulfonamide], the half-inhibitory concentration (IC50) (in experiment [1]; at BRAF V600E) was 0.0001 to 1 µM in each case. In addition, the EC50 (in experiment [2]; with B9 (HRAS Q61L) cell line) was above 10 µM throughout.

Take `N#Cc1ccnc2[nH]cc(C(=O)c3c(F)ccc(NS(=O)(=O)C4CCCCC4)c3F)c12` [P-2018, N-[3-(4-cyano-1H-pyrrolo[2,3-b]pyridine-3-carbonyl)-2,4-difluoro-phenyl]cyclohexanesulfonamide]: the IC50 in experiment [1] is above 10 µM; at BRAF V600E, 0.0001 to 1 µM. The EC50 (in experiment [2]; in the experiment on B9 (HRAS Q61L) cell line) was above 10 µM in each case.

In the case of `O=C(O)CNc1ncnc2[nH]cc(C(=O)c3cccc(NS(=O)(=O)N4CCCC4)c3F)c12` [P-2109, 2-[[5-[2-fluoro-3-(pyrrolidin-1-ylsulfonylamino)benzoyl]-7H-pyrrolo[2,3-d]pyrimidin-4-yl]amino]acetic acid], the IC50 in experiment [1] fell in the range of 1 to 10 µM; on BRAF V600E, 0.0001 to 1 µM. For the same molecule, the EC50 (in experiment [2]; in the experiment on B9 (HRAS Q61L) cell line) was above 10 µM throughout.

For the molecule `CCN(C)S(=O)(=O)Nc1cccc(C(=O)c2c[nH]c3ncnc(N[C@H](C)C4CC4)c23)c1F` [P-2079, 4-[[(1R)-1-cyclopropylethyl]amino]-5-[3-[[ethyl(methyl)sulfamoyl]amino]-2-fluoro-benzoyl]-7H-pyrrolo[2,3-d]pyrimidine], the concentration for half-maximal inhibition (IC50) (in experiment [1]; against BRAF V600E) was 0.0001 to 1 µM in each case. The EC50 (in experiment [2]; with B9 (HRAS Q61L) cell line) was above 10 µM each time.

As for `CN(C)S(=O)(=O)Nc1ccc(F)c(C(=O)c2c[nH]c3nccc(Cl)c23)c1F` [Compound P-2007, 4-chloro-3-[3-(dimethylsulfamoylamino)-2,6-difluoro-benzoyl]-1H-pyrrolo[2,3-b]pyridine], the IC50 (in experiment [1]; against BRAF V600E) was 0.0001 to 1 µM throughout. Also, the EC50 (in experiment [2]; in the experiment on B9 (HRAS Q61L) cell line) was above 10 µM each time.

Regarding `CCN(CC)S(=O)(=O)Nc1ccc(F)c(C(=O)c2c[nH]c3ncnc(NCC4CC4)c23)c1F` [P-2052, 4-(cyclopropylmethylamino)-5-[3-(diethylsulfamoylamino)-2,6-difluoro-benzoyl]-7H-pyrrolo[2,3-d]pyrimidine], the IC50 (in experiment [1]; against BRAF V600E) was 0.0001 to 1 µM throughout. The EC50 (in experiment [2]; in the experiment on B9 (HRAS Q61L) cell line) was above 10 µM each time.
